# Experimental data taken from patent publication US20080269237A1, “CARBAMIC ACID COMPOUNDS COMPRISING A PIPERAZINE LINKAGE AS HDAC INHIBITORS” (TOPOTARGET UK LIMITED, priority 2002, published 2008).
# Counter-ions that a name gives are not always drawn.
row,melting point,SMILES
1,147 to 147.5 °C,"C/C(=N\O)c1ccc(N2CCN(C(=O)CCCCCCC(=O)NO)CC2)cc1 [PX118903, 8-{4-[4-(1-Hydroxyimino-ethyl)-phenyl]-piperazin-1-yl}-8-oxo octanoic acid hydroxyamide]"
2,199 to 200 °C,"COc1cccc(N2CCN(S(=O)(=O)c3ccc(/C=C/C(=O)NO)cc3)CC2)c1 [PX118892, (E)-N-Hydroxy-3-(4-{[4-(3-methoxyphenyl)-1-piperazinyl]sulfonyl}phenyl)-2-propenamide]"
3,178 to 179 °C,"O=C(/C=C/c1ccc(S(=O)(=O)N2CCN(c3cccc(C(F)(F)F)c3)CC2)cc1)NO [PX118937, (E)-N-Hydroxy-3-[4-({4-[3-(trifluoromethyl)phenyl]-1-piperazinyl}-sulfonyl)phenyl]-2-propenamide]"
4,189 °C,"CN(C)c1ccc(CCN2CCN(S(=O)(=O)c3cccc(/C=C/C(=O)NO)c3)CC2)cc1 [PX118951, (E)-3-[3-({4-[4-(Dimethylamino)phenethyl]-1-piperazinyl}sulfonyl)phenyl]-N-hydroxy-2-propenamide]"
5,165 to 166 °C,"O=C(CCCCCC(=O)N1CCN(CCCc2c[nH]c3ccccc23)CC1)NO [PX118970, N-Hydroxy-7-{4-[3-(1H-indol-3-yl)propyl]-1-piperazinyl}-7-oxoheptanamide]"
6,125 to 126 °C,"O=C(CCCCCC(=O)N1CCN(c2ccc(Cl)c(Cl)c2)CC1)NO [PX118989, 7-[4-(3,4-Dichlorophenyl)-1-piperazinyl]-N-hydroxy-7-oxoheptanamide]"
7,126 to 128 °C,"O=C(CCCCCCC(=O)N1CCN(c2cccc(C(F)(F)F)c2)CC1)NO [PX118860, 8-Oxo-8-[4-(3-trifluoromethylphenyl)-piperazin-1-yl]-octanoic acid hydroxyamide]"
8,178 °C,"O=C(/C=C/c1cccc(S(=O)(=O)N2CCN(C/C=C/c3ccccc3)CC2)c1)NO [PX118870, (E)-N-Hydroxy-3-[3-({4-[(E)-3-phenyl-2-propenyl]-1-piperazinyl}sulfonyl)phenyl]-2-propenamide]"
9,65 to 67 °C,"O=C(CCCCCC(=O)N1CCN(Cc2c[nH]c3ccccc23)CC1)NO [PX118978, N-Hydroxy-7-[4-(1H-indol-3-ylmethyl)-1-piperazinyl]-7-oxoheptanamide]"
10,185 °C,"O=C(/C=C/c1cccc(S(=O)(=O)N2CCN(Cc3ccccc3)CC2)c1)NO [PX118874, (E)-3-{3-[(4-Benzyl-1-piperazinyl)sulfonyl]phenyl}-N-hydroxy-2-propenamide]"
11,184 °C,"O=C(/C=C/c1cccc(S(=O)(=O)N2CCN(CCc3ccc4ccccc4c3)CC2)c1)NO [PX118914, (E)-N-Hydroxy-3-[3-({4-[2-(2naphthyl)ethyl]-1-piperazinyl}sulfonyl)phenyl]-2-propenamide]"
12,119 to 121 °C,"O=C(CCCCCC(=O)N1CCN(c2ccc(Cl)cc2)CC1)NO [PX118991, 7-[4-(4-Chlorophenyl)-1-piperazinyl]-N-hydroxy-7-oxoheptanamide]"
13,119 to 120 °C,"O=C(CCCCCC(=O)N1CCN(c2ccc(F)cc2)CC1)NO [PX118990, 7-[4-(4-Fluorophenyl)-1-piperazinyl]-N-hydroxy-7-oxoheptanamide]"
14,103 to 105 °C,"CN(C)c1ccc(CCN2CCN(C(=O)CCCCCCC(=O)NO)CC2)cc1 [PX118928, 8-{4-[4-(Dimethylamino)phenethyl]-1-piperazinyl}-N-hydroxy-8-oxooctanamide]"
15,139 to 140.5 °C,"O=C(CCCCCCC(=O)N1CCN(C(=O)COc2ccc3ccccc3c2)CC1)NO [PX118929, N-Hydroxy-8-{4-[2-(2-naphthyloxy)acetyl]-1-piperazinyl}-8-oxooctanamide]"
16,199 to 200 °C,"O=C(/C=C/c1ccc(S(=O)(=O)N2CCN(c3ccc([N+](=O)[O-])cc3)CC2)cc1)NO [PX118918, (E)-N-Hydroxy-3-(4-{[4-(4-nitrophenyl)-1-piperazinyl]sulfonyl}phenyl)-2-propenamide]"
17,117 °C (dec.),"O=C(/C=C/c1cccc(S(=O)(=O)N2CCN(CC(c3ccccc3)c3ccccc3)CC2)c1)NO [PX118913, (E)-3-(3-{[4-(2,2-Diphenylethyl)-1-piperazinyl]sulfonyl}phenyl)-N-hydroxy-2-propenamide]"
18,130 °C,"O=C(/C=C/c1cccc(S(=O)(=O)N2CCN(CCOc3ccc4ccccc4c3)CC2)c1)NO [PX118935, (E)-N-Hydroxy-3-[3-({4-[2-(2-naphthyloxy)ethyl]-1-piperazinyl}-sulfonyl)phenyl]-2-propenamide]"
19,134 to 136 °C,"O=C(CCCCCCC(=O)N1CCN(c2ccccc2)CC1)NO [PX117402, 8-Oxo-8-(4-phenyl-piperazin-1-yl)-octanoic acid hydroxyamide]"
20,75 to 76 °C,"Cc1cccc(N2CCN(C(=O)CCCCCCC(=O)NO)CC2C)c1 (stereo not shown) [PX118899, 8-(3-Methyl-4-m-tolyl-piperazin-1-yl)-8-oxo octanoic acid hydroxyamide]"

row,melting point,SMILES
1,200 °C,"O=C(/C=C/c1cccc(S(=O)(=O)N2CCN(c3ncccn3)CC2)c1)NO [PX118894, (E)-N-Hydroxy-3-(3{-[4-(2-pyrimidinyl)-1-piperazinyl]sulfonyl}-phenyl)-2-propenamide]"
2,117 to 118 °C,"O=C(CCCCCCC(=O)N1CCN(CC(c2ccccc2)c2ccccc2)CC1)NO [PX118909, 8-[4-(2,2-Diphenyl-ethyl)-piperazin-1-yl]-8-oxo octanoic acid hydroxyamide]"
3,173 °C,"O=C(/C=C/c1cccc(S(=O)(=O)N2CCN(c3cccc(C(F)(F)F)c3)CC2)c1)NO [PX118878, (E)-N-Hydroxy-3-[3-({4-[3-(trifluoromethyl)phenyl]-1-piperazinyl}sulfonyl)phenyl]-2-propenamide]"
4,178 °C,"O=C(/C=C/c1cccc(S(=O)(=O)N2CCN(CCOc3cccc4ccccc34)CC2)c1)NO [PX118934, (E)-N-Hydroxy-3-[3-({4-[2-(1-naphthyloxy)ethyl]-1-piperazinyl}-sulfonyl)phenyl]-2-propenamide]"
5,196 °C,"COc1cccc(N2CCN(S(=O)(=O)c3cccc(/C=C/C(=O)NO)c3)CC2)c1 [PX118872, (E)-N-hydroxy-3-(3-{[4(3-methoxyphenyl)piperazinyl]sulfonyl}phenyl)-2-propenamide]"
6,196 to 197 °C,"O=C(/C=C/c1ccc(S(=O)(=O)N2CCN(c3ccccc3F)CC2)cc1)NO [PX118891, (E)-3-(4-{[4-(2-Fluorophenyl)-1-piperazinyl]sulfonyl}phenyl)-N-hydroxy-2-propenamide]"
7,172 °C,"O=C(/C=C/c1cccc(S(=O)(=O)N2CCN(Cc3ccc4c(c3)OCO4)CC2)c1)NO [PX118873, (E)-3-(3-{[4-(1,3-Benzodioxol-5-ylmethyl)-1-piperazinyl]sulfonyl}-phenyl)-N-hydroxy-2-propenamide]"
8,203 °C (dec.),"C=C(Cl)c1ccc(N2CCN(S(=O)(=O)c3cccc(/C=C/C(=O)NO)c3)CC2)cc1 [PX118933, (E)-3-[3-({4-[4-(1-Chlorovinyl)phenyl]-1-piperazinyl}sulfonyl)phenyl]-N-hydroxy-2-propenamide]"
9,193 °C,"O=C(/C=C/c1cccc(S(=O)(=O)N2CCN(c3ccc(Cl)c(Cl)c3)CC2)c1)NO [PX118971, (E)-3-(3-{[4-(3,4-Dichlorophenyl)-1-piperazinyl]sulfonyl}phenyl)-N-hydroxy-2-propenamide]"
10,149 to 150.5 °C,"O=C(CCCCCCC(=O)N1CCN(c2cccc(F)c2)CC1)NO [PX118859, 8-[4-(3-Fluorophenyl)-piperazin-1-yl]-8-oxooctanoic acid hydroxyamide]"
11,118 to 122 °C,"O=C(CCCCCC(=O)N1CCN(c2ccccn2)CC1)NO (as salt: oxalate) [PX118845, 7-Oxo-7-(4-pyridin-2-yl-piperazin-1-yl]-heptanoic acid hydroxyamide oxalate]"
12,140 to 141 °C,"O=C(CCCCCCC(=O)N1CCN(C(=O)Cc2csc3ccccc23)CC1)NO [PX118967, 8-{4-[2-(1-Benzothiophen-3-yl)acetyl]-1-piperazinyl}-N-hydroxy-8-oxooctanamide]"
13,152.5 to 153.5 °C,"O=C(CCCCCC(=O)N1CCN(C(=O)CCc2c[nH]c3ccccc23)CC1)NO [PX118968, N-Hydroxy-7-{4-[3-(1H-indol-3-yl)propanoyl]-1-piperazinyl}-7-oxoheptanamide]"
14,86 to 88 °C,"O=C(CCCCCC(=O)N1CCN(C(=O)c2c[nH]c3ccccc23)CC1)NO [PX118969, N-Hydroxy-7-[4-(1H-indol-3-ylcarbonyl)-1-piperazinyl]-7-oxoheptanamide]"
15,215 °C,"O=C(/C=C/c1cccc(S(=O)(=O)N2CCN(c3ccc(Cl)cc3)CC2)c1)NO [PX118972, (E)-3-(3-{[4-(4-Chlorophenyl)-1-piperazinyl]sulfonyl}phenyl)-N-hydroxy-2-propenamide]"
16,122 to 125 °C,COc1ccc2[nH]cc(CCN3CCN(C(=O)CCCCCCC(=O)NO)CC3)c2c1.O=C(O)C(=O)O
17,176 °C,"O=C(/C=C/c1cccc(S(=O)(=O)N2CCN(c3ccccc3F)CC2)c1)NO [PX118877, (E)-3-(3-{[4-(2-Fluorophenyl)-1-piperazinyl]sulfonyl}phenyl)-N-hydroxy-2-propenamide]"
18,119.5 to 120.5 °C,"Cc1ccc(N2CCN(C(=O)CCCCCC(=O)NO)CC2)cc1C [PX118994, 7-[4-(3,4-Dimethylphenyl)-1-piperazinyl]-N-hydroxy-7-oxoheptanamide]"
19,118 to 120 °C,"O=C(CCCCCCC(=O)N1CCN(CCc2ccc3ccccc3c2)CC1)NO [PX118908, 8-[4-(2-Naphthalen-2-yl-ethyl)-piperazin-1-yl]-8-oxo octanoic acid hydroxyamide]"
20,125 to 126 °C,"O=C(/C=C/c1ccc(S(=O)(=O)N2CCN(C(c3ccc(F)cc3)c3ccc(F)cc3)CC2)cc1)NO [PX118965, (E)-3-[4-({4-[Bis(4-fluorophenyl)methyl]-1-piperazinyl}sulfonyl)phenyl]-N-hydroxy-2-propenamide]"
